Assay results taken from patent US5217953A, “Vasoactive intestinal peptide antagonist” (The United States of America as represented by the …, priority 1990, dated 1993).
Read-outs that look alike come from different tables or passages of the source. No end group written: not given here.

Assays:
[1] = biological target: NSCLC VIP receptors (EPLC-65H membranes); experiment: 125I-VIP binding to EPLC-65H membranes; conditions: for IC50 / Kd: EPLC-65H membranes; for IC50: 37° C., 60 min, read-out: IC50, inhibition of specific 125I-VIP binding
Experimental: The binding properties and the adenylate cyclase activity of the VIP receptor in NSCLC cell lines were investigated. NSCLC cells were cultured in RPMI-1640 containing 10% heat inactivated fetal bovine serum (Carney et al. (1985) Cancer Res. 45:2913-2923). When a monolayer formed, the adherent cells were washed with PBS and treated with trypsin/EDTA. The cells were pelleted and resuspended in serum supplemented medium and incubated at 37° C. in 5% CO2 /95% air. Routinely the cells were passed 1/1 weekly and experiments were conducted when the cells were in exponential growth phase.
Cells were rinsed twice in PBS. Membranes were prepared from EPLC-65H by lysing cells in 20 mM Tris.HCl (pH7.5), 1 mg/ml bacitracin, 1 mM PMSF and 0.25M sucrose. The cells were sonicated (15 sec, 120 W) and the membranes centrifuged at 500×g for 5 min in a Beckman J-21 B centrifuge at 4° C. The supernatant was saved and the pellet resuspended, homogenized and centrifuged. The supernatants were combined and centrifuged at 50,000×g for 30 min. The pellet, which contains plasma membranes, was resuspended and 50 μg of membrane protein and 2×10^5 cpm of ^125 I-VIP (2200 Ci/mmol) was added to each assay tube in a total volume of 100 μl; the buffer was 50 mM Tris.maleate, 2 mM MgCl2, 2% BSA, 500 KIU/ml trasylol and 0.2 mg/ml bacitracin. The samples were incubated at 37° C. for 60 min. To terminate the reaction, the incubation solution was centrifuged for 3 min in a microfuge B. The supernatant, which contained free peptide was removed and the top of the pellet rinsed three times with cold assay buffer. The pellet, which contained bound ^125 I-VIP was counted in a gamma counter.
^125 I was purchased from NEN. VIP was iodinated using the chloramine T procedure (Christophe et al. (1976) J. Biol. Chem. 251:4629-4634). ^125 I-VIP was purified using gel filtration techniques. VIP peptides were purchased from Peninsula Laboratories Inc. (San Carlos, Calif.).

[2] = tested on: castrated rats injected with testosterone; experiment: Sexual behavior of castrated rats supplemented with testosterone; type: in vivo, rat
Experimental: Rats were castrated and injected with testosterone (4 μg/100 g BW) daily for 14 consecutive days. VIP (5 μg/animal) and the antagonists (30 μg/animal) were injected ip in a volume of 0.25 ml. Initial experiments were conducted using iv injections; however, as no significant differences were observed between iv and ip administration, ip injections were chosen in this model. When comparisons were made, the same group of rats was injected with one peptide and, after a period of at least 24 hr, with another peptide.

[3] = tested on: NSCLC VIP receptors (EPLC-65H membranes); experiment: 125I-VIP binding to EPLC-65H membranes
NCI-H838 = experiment: Soft agar colony formation, NCI-H838; type: cell-based; conditions: 1 μM, 2 weeks
Experimental: (§1) In order to test whether the VIP-neurotensin hybrid antagonist inhibited the growth of NSCLC, single viable cells (10^4) were plated in soft agar in the absence and presence of 1 μM VIP-neurotensin hybrid antagonist. After 2 weeks, colonies were stained with a vital dye and live colonies (>[…]) counted. The colony fraction (colonies in the presence of the VIP-neurotensin hybrid antagonist relative to the number of basal colonies) was calculated. Cell lines NCI-H522, NCI-H838, and NCI-H1246 had colony fractions of 0.45±0.16, 0.76±0.04, and 1.47±0.30, respectively. The VIP-neurotensin hybrid antagonist inhibited colony formation of cell lines NCI-H522 and NCI-H838 but not NCI-H1246.

NCI-H522 = experiment: Soft agar colony formation, NCI-H522; type: cell-based; conditions: 1 μM, 2 weeks
Experimental: as §1

VIP receptor = experiment: [125I]VIP binding to rat cortical astrocyte (glial) cell cultures; conditions: 60 pM [125I]VIP, intact cells, 4° C.; for displacement of VIP binding: 10 μM
Experimental: Rat cortical astrocyte cultures were prepared by previously described methods (Evans et al. (1984) J. Neurochem. 43:131; Brenneman et al.(1987) J. Cell Biol. 104:1603). VIP binding studies were conducted on intact cells at 4° C., using PBS containing 0.1% BSA. The cultures (1 mg protein/35 mm culture dish) were incubated with either VIP or the antagonist (10 μM to 1 pM) for 30 min before the addition of 60 pM [^125 I]VIP at Tyr-22 (2000 Ci/mmol; Amersham Corp., Arlington Heights, Ill). Labeled VIP was incubated with the cultures for 1 hr; the medium was then removed, and cells were washed three times by the addition and rapid removal of 1 ml PBS (at 4° C.). The labeled cells were dissolved in 0.02N NaOH and transferred for radioactivity counting.

NCI-H1246 = experiment: Soft agar colony formation, NCI-H1246; type: cell-based; conditions: 1 μM, 2 weeks
Experimental: as §1

[4] = tested on: pituitary-transplanted male rats; experiment: Sexual behavior of pituitary-grafted gonadally intact male rats; type: in vivo, rat; conditions: 5 ug iv
Text: (§2) Male rats were sexually experienced Wistar-derived animals (250-300 g), approximately 3 months old from the Department of Hormone Research, Weizmann Institute of Science. All rats were kept in a 12-hr light, 12-hr dark cycle. Experiments were always conducted within the dark period 2-6 hrs after the onset of darkness. Before testing, each male was put in a separate cage for a period of at least 1 hr. A sexually receptive female (as tested by vaginal smearing) was introduced to each male. Latencies were defined as the intervals between copulatory behaviors (mounts and intromissions). These were recorded over a 15-min period. The latencies to the first copulatory event are reported separately.
This procedure results in hyperprolactinemia and a decrease in sexual potency in male rats. Pituitary-transplanted male rats (8 weeks after transplantation) were injected with 5 μg VIP, iv. As a control, saline iv was injected at identical volumes. The peptide was injected into the tail vein, restraining the animal by hand (two people were involved in the actual injection). The animals were subjected to the behavioral tests immediately after the injection. At least 24 hr elapsed between two consecutive tests per animal (i.e. between saline injection and VIP injection). The doses of VIP were deduced from those used to induce penile erection in men (Ottesen et al. (1984) Br. Med. J. 288:9). The statistical analysis involved a single test measurement per animal.

cAMP levels in 5M2 cells = experiment: cAMP radioimmunoassay in 5M2 cells; type: cell-based; conditions: 5 min exposure
Experimental: The cAMP assays were performed by radioimmunoassay. 5M2 cells were exposed to stimuli in SIT medium (RPMI-1640 containing 10^-8 M Se2 O3, 1 μg/ml insulin and 3×10^-8 M transferrin) containing […] isobutyl-methyl-xanthine. After 5 min, the reaction was quenched by adding an equal volume of ice cold ethanol. The samples were vortexed and an aliquot of supernatant removed and added to 100 μl of 50 mM sodium acetate (pH 6.2). The sample (25 μl) was acetylated at 4° C. by adding 10 μl of triethylamine followed by 5 μl of acetic anhydride. Then 200 μl of goat anti-cyclic AMP antibody was added followed by 8,000 cpm of ^125 I-2-succinyl (tyrosine methyl ester)-cyclic AMP (NEN). After incubation for 16 hr at 4° C., 1 ml of charcoal suspension (2 mg/ml Norit-A charcoal in 100 mM phosphate buffer, pH 6.3, which contains 0.25% BSA) was added, the tubes vortexed and centrifuged at 1,500×g for 10 min. An aliquot (1 ml) of supernatant, which contains radiolabeled antigen-antibody complex, was counted in a gamma counter.

castrated rats = experiment: Sexual behavior of castrated rats without testosterone supplementation; type: in vivo, rat
Text: as §2
After castration, the animals lose sexual activity in a time-dependent manner (Bradshaw et al. (1981) Endocrinology 109:1047; Reach et al. (1946) J. Exp. Zool. 101:91), and eventually all sexual activities are blocked. […] VIP (5 μg/animal) and the antagonists (30 μg/animal) were injected ip in a volume of 0.25 ml. Initial experiments were conducted using iv injections; however, as no significant differences were observed between iv and ip administration, ip injections were chosen in this model. When comparisons were made, the same group of rats was injected with one peptide and, after a period of at least 24 hr, with another peptide. The other parameters used for the experiment are described above.
The second paradigm was the castrated rat model.

[5] = coinjected ip with VIP at 3-fold molar excess

With “GHRH: unlabeled peptide tested for specificity of 125I-VIP binding” the IC50 [1] was 20 nM.
In the case of “peptide histidine isoleucine amide (HADGVFTSDYSRLLGQISAKKYLESLI-NH2; UniProt P01283 81-107, looked up) [PHI, cosynthesized with VIP on the same protein precursor]”, the “average latency to intromissions and rate of copulatory events, difference from VIP by itself” value ([2]; PHI by itself or VIP plus PHI equimolar) is reported as 2 fold, the animals that ejaculated ([2]; in the presence of PHI, 5 ug iv) is reported as “one of nine” and the “effect on rat sexual behavior” value ([2]; peptide by itself (5 ug iv) or with VIP) is reported as “inhibited rat sexual behavior and VIP-induced rat sexual behavior”. It also gave an IC50 [1] of 80 nM.
For “^125 I-VIP: VIP iodinated using the chloramine T procedure; radiolabeled VIP”, the Kd ([1]; read-out: Kd, high affinity site (Scatchard)) was 0.7 nM, the Kd ([1]; read-out: Kd, low affinity site (Scatchard)) was 20 nM and the “time at which half of the specific binding was reversed (dissociation)” value ([1]; after addition of 1 μM unlabeled VIP) was 40 min. The “time to half maximal specific binding (association)” value [3] was 20 min and the “time to maximal specific binding (association)” value [3] was 60 min.
helodermin gave an IC50 [1] of 100 nM.
“Lys-Pro-Arg-Arg-Pro-Tyr-Thr-Asp-Asn-Tyr-Thr-Arg-Leu-Arg-Lys-Gln-Met-Ala-Val-Lys-Lys-Tyr-Leu-Asn-Ser-Ile-Leu-Asn-NH2 (KPRRPYTDNYTRLRKQMAVKKYLNSILN-NH2) [VIP-neurotensin hybrid antagonist]” was tested, and the “colony fraction (colonies with antagonist relative to basal colonies)” value (NCI-H838) was 0.76±0.04, the “colony fraction (colonies with antagonist relative to basal colonies)” value (NCI-H522) was 0.45±0.16 and the IC50 (VIP receptor; read-out: IC50, first binding site of biphasic displacement curve) was 0.05 nM. The IC50 (VIP receptor; read-out: IC50, second binding site of biphasic displacement curve) was 100 nM, the “displacement of VIP binding” value (VIP receptor) was 85-90% and the “effect on VIP-stimulated sexual activity” value [2, 5] was “complete blockade of VIP activity”. For the same substance, the “sexual activity values lower than the control values” [2, 5] was 2 fold, the “latency to the first copulatory event” value ([2]; coinjected ip with VIP at 3-fold molar excess, 40±9 with VIP alone) was 92 ± 20 s and the “rate of copulatory events” value ([2]; injected by itself, 10 animals, from 1.66±0.12) was 1.16±0.11. For the same substance, the intromission interval ([2]; injected by itself, 10 animals, from 36.9±2.4) was 53.4 ± 8.6 s, the IC50 [1] was 10 nM and the “colony fraction (colonies with antagonist relative to basal colonies)” value (NCI-H1246) was 1.47±0.30.
In the case of secretin, the IC50 [1] is reported as 300 nM.
“VIP: a 28 amino acid peptide with an amidated C-terminal; widely distributed peptide hormone” was tested, and the “displacement of VIP binding” value (VIP receptor) was 75%, the “decrease in intervals (intromission latencies) between copulatory events” value ([2]; 5 ug ip) was 2 fold and the “latency to the first intromission” value ([2]; 5 ug ip, nine animals, 74±10 without VIP) was 40 ± 9 s. The “increase in the rate of intromissions before ejaculation or end of test period” value ([2]; 5 ug ip, vs saline injection) was about 2 fold, the animals that ejaculated ([2]; after VIP treatment, 15 animals) was 80-100% and the IC50 [1] was 10 nM. For the same substance, the “mean latency to the first mount and intromission” value [4] was 23 ± 4 s, the “mean interval between copulatory events” value ([4]; 15-min test, vs saline) was “significant reduction” and the rate of copulation ([4]; 15-min test, vs saline) was “significant increase”. For the same substance, the “decrease in the latency to the first intromission” value ([4]; vs control) was 2- to 3 fold, the rats that ejaculated ([4]; 10-20% before treatment) was “all of the rats ejaculated” and the “ED50, increase of cAMP levels” value (cAMP levels in 5M2 cells) was 10 nM. For the same substance, the “drop in the intervals between copulatory events (including latency to first intromission)” value (castrated rats; 14 days after castration, 5 ug ip) was 2- to 4 fold, the intromission latency (castrated rats; 14 days after castration, 5 ug ip, six animals, 90±16 before) was 35 ± 2.4 s and the animals that ejaculated (castrated rats; model without testosterone supplementation, after VIP treatment) was 1 of 6.
For LMYPTYLK [octamere], the “effect on VIP-stimulated sexual behavior” value ([2]; coinjected with VIP (5 ug), 20-fold molar excess, 30 ug/animal ip) was “specifically inhibited VIP effects on sexual behavior”.
